Results: ChEMBL document CHEMBL1201862, “PubChem BioAssay data set” (2004)
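1) Cells in 96-well plates. 2) Compound, 48 h, 5 concentrations. 3) Linear interpolation between surrounding doses. 4) Unreached endpoint = highest concentration. At the GI50, growth is halved.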 Calls of active or inactive are those of the source. No stated cut-off is given here; in the data, active = GI50 up to about 1.1 µM and inactive = higher.

Columns and labels:
Assay in all cases: NCI tumour cell line growth inhibition, 48 h
[1] = tested on: 786-0
[2] = tested on: A498
[3] = tested on: A549
[4] = tested on: ACHN
[5] = tested on: BT-549
[6] = tested on: CAKI-1
[7] = tested on: CCRF-CEM
[8] = tested on: COLO 205
[9] = tested on: DLD-1
[10] = tested on: DMS-114
[11] = tested on: DMS-273
[12] = tested on: DU-145
[13] = tested on: EKVX
[14] = tested on: HCC 2998
[15] = tested on: HCT-116
[16] = tested on: HCT-15
[17] = tested on: HOP-18
[18] = tested on: HOP-62
[19] = tested on: HOP-92
[20] = tested on: HT-29
[21] = tested on: Hs-578T
[22] = tested on: IGROV-1
[23] = tested on: K562
[24] = tested on: KM-20L2
[25] = tested on: KM12
[26] = tested on: LOX IMVI
[27] = tested on: LXFL 529
[28] = tested on: M14
[29] = tested on: M19-MEL
[30] = tested on: MCF7
[31] = tested on: MDA-MB-231
[32] = tested on: MDA-N
[33] = tested on: Malme-3M
[34] = tested on: NCI-H226
[35] = tested on: NCI-H23
[36] = tested on: NCI-H460
[37] = tested on: NCI-H522
[38] = tested on: NCI/ADR-RES
[39] = tested on: OVCAR-3
[40] = tested on: OVCAR-4
[41] = tested on: OVCAR-5
[42] = tested on: OVCAR-8
[43] = tested on: PC-3
[44] = tested on: RXF 393
[45] = tested on: RXF 631
[46] = tested on: SF-268
[47] = tested on: SF-295
[48] = tested on: SF-539
[49] = tested on: SK-MEL-28
[50] = tested on: SK-MEL-2
[51] = tested on: SK-MEL-5
[52] = tested on: SK-OV-3
[53] = tested on: SN12C
[54] = tested on: SNB-19
[55] = tested on: SNB-75
[56] = tested on: SNB-78
[57] = tested on: SR
[58] = tested on: SW-620
[59] = tested on: T47D
[60] = tested on: TK-10
[61] = tested on: U-251
[62] = tested on: UACC-257
[63] = tested on: UACC-62
[64] = tested on: UO-31
[65] = tested on: XF498
[66] = tested on: HL-60
[67] = tested on: RPMI-8226

Measured: GI50

CCCCCCCCCCCCC(O)C1CCC(C(O)CCCCC(O)CCCCCC2CC(CC(C)=O)C(=O)O2)O1 (centres undefined)
active: [10] < 0.01 µM | [15] 0.175 µM | [19] 0.986 µM | [23] 0.0186 µM | [30] 1.01 µM | [33] 0.94 µM | [35] < 0.01 µM | [38] 0.29 µM | [47] 0.133 µM | [51] 0.0931 µM | [62] 0.0204 µM
3.35 µM: [16]
inactive: [1] 6.79 µM | [2] 4.52 µM | [3] 3.21 µM | [4] 7.85 µM | [5] 2.79 µM | [6] 8.87 µM | [7] 1.43 µM | [8] 3.19 µM | [9] 6.21 µM | [11] 2.21 µM | [12] 3.86 µM | [13] 3.25 µM | [14] 8.18 µM | [17] 11.3 µM | [18] 4.58 µM | [20] 3.5 µM | [21] 1.69 µM | [22] 5.78 µM | [24] 4.29 µM | [25] 1.63 µM | [26] 1.4 µM | [27] 2.81 µM | [28] 7.29 µM | [29] 2.45 µM | [31] 2.54 µM | [32] 1.6 µM | [34] 1.82 µM | [36] 3.77 µM | [37] 4.15 µM | [39] 2.09 µM | [40] 1.44 µM | [41] 8.75 µM | [42] 3.44 µM | [43] 1.68 µM | [44] 4.29 µM | [45] 3.17 µM | [46] 3.33 µM | [48] 3.9 µM | [49] 4.7 µM | [50] 4.95 µM | [52] 11.9 µM | [53] 4.83 µM | [54] 2.33 µM | [55] 3.72 µM | [56] 12.5 µM | [57] 1.34 µM | [58] 5.87 µM | [59] 2.77 µM | [60] 4.99 µM | [61] 3.11 µM | [63] 1.7 µM | [64] 2.27 µM | [65] 1.82 µM

Nc1nc2c(ncn2C2OC(CO)C(O)C2O)c(=O)o1 (centres undefined)
42.9 µM: [16]
inactive: [1] > 100 µM | [2] > 100 µM | [3] > 100 µM | [4] > 83.8 µM | [6] > 100 µM | [7] > 23.2 µM | [8] > 42 µM | [9] > 89.1 µM | [10] 67.3 µM | [11] 22.5 µM | [12] > 100 µM | [13] > 100 µM | [14] 5.82 µM | [15] > 82.2 µM | [66] > 45.1 µM | [17] > 100 µM | [18] > 100 µM | [19] > 100 µM | [20] 26.4 µM | [22] > 100 µM | [23] > 21.9 µM | [24] > 55 µM | [25] > 100 µM | [26] > 58.2 µM | [27] > 100 µM | [28] > 100 µM | [29] > 100 µM | [33] > 100 µM | [34] > 100 µM | [35] > 84.1 µM | [36] > 100 µM | [37] 18.6 µM | [39] > 100 µM | [40] > 100 µM | [41] > 100 µM | [42] > 100 µM | [43] > 100 µM | [67] > 52.8 µM | [44] > 100 µM | [45] > 100 µM | [46] > 100 µM | [47] > 100 µM | [48] > 100 µM | [49] > 100 µM | [50] > 100 µM | [51] > 100 µM | [52] > 100 µM | [53] > 100 µM | [54] > 100 µM | [55] > 100 µM | [56] > 100 µM | [58] > 33.4 µM | [60] > 100 µM | [61] > 100 µM | [62] > 100 µM | [63] > 100 µM | [64] > 87.1 µM | [65] > 100 µM
